Laboratory results as given in patent EP0478445B1, “Composition for cleaning and decontaminating, in particular surgical instruments” (priority 1990, dated 1992).

Experiments:
[1] = Characteristics of the ingredients (pH, solubility); assay type: physicochemical
homme = details: cited from earlier work
[2] = Irritancy of the ingredient

Question: Which solubilité [1] does the source give for `CCCCCCCCC=CCCCCCCCC1=NCCN1CCO` [1-hydroxyéthyl-2-heptadécényl-imidazoline] here?
Answer: soluble dans la plupart des solvants polaires et apolaires

Question: Which “larmoiements (inhalation)” value (homme; man, inhalation) does the source give for `C=O` [formaldéhyde] here?
Answer: ≥ 0,1 ppm

Question: What about the oedème pulmonaire (homme; man, inhalation) of the same molecule?
Answer: 50 ppm

Question: What about the irritation oculaire superficielle (homme; some exposed persons) of the same molecule?
Answer: ≥ 0,4 ppm

Question: With `CCCCCCCCCCCC[N+](C)(C)CC(=O)[O-]` [lauryldiméthylcarboxyméthylammonium bétaine] as the molecule, how does the “irritation des muqueuses et des yeux” value [2] read?
Answer: n'irrite ni les muqueuses ni les yeux

Question: What does the source list for “N|N'(N"-2-hydroxyéthyl-N"-carboxyéthylaminoéthyl) amidoacétate|-N,N-diméthyl-N-coco-ammoniumbétaine”?
Answer: solubilité [1]: soluble de façon limpide dans l'eau, l'éthanol, l'isopropanol; pH (à 10%) ([1]; at 10%): 8-9
